This note sets out measurements from patent US11273126B2, “Amorphous dispersion of cyclopropanecarboxylic acid (5-{5-[N′-(2-chloro-6-methylbenzoyl) hydrazinocarbonyl]-2-methyl-phenylethynyl}-pyridin-2-yl) amide” (SUN PHARMA ADVANCED RESEARCH COMPANY LIMITED, priority 2017, dated 2022).

The AUC(0-inf) is total exposure, with the tail of the curve extrapolated. As usually defined, the AUC(0-t) is exposure summed from dosing to a finite time, without extrapolation to infinity. A lower AUC(0-t) goes with low exposure. As usually defined, the Cmax is the highest concentration seen after dosing.

The series in a line: Oral administration to dogs, plasma levels of compound of formula I (bioavailability). It is filed as in vivo. The following applies: dog, plasma level of compound of formula I. The method, then:
Suitable amount of amorphous dispersion of Example I and the crystalline form of compound of formula I suspended in a vehicle were administered orally to dogs. Blood samples were withdrawn at various time intervals and the plasma levels of compound of formula I were recorded. The Cmax, AUC0 to 1 and AUC0-∞, in plasma are tabulated below.

As to `Cc1ccc(C(=O)NNC(=O)c2c(C)cccc2Cl)cc1C#Cc1ccc(NC(=O)C2CC2)nc1` [Compound of formula I in a vehicle, cyclopropanecarboxylic acid (5-{5-[N′-(2-chloro-6-methylbenzoyl) hydrazinocarbonyl]-2-methyl-phenylethynyl}-pyridin-2-yl)amide], the area under the curve AUC(0-inf) amounted to 388 ng·h/mL, the area under the curve AUC(0-t) amounted to 290 ng·h/mL and the concentration peaked (Cmax) at 41 ng/mL.
